Measurements published in ChEMBL document CHEMBL1201862, “PubChem BioAssay data set” (2004).
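Tested at 5 concentrations; 48 h exposure; 96-well plates; endpoints linearly interpolated, else capped at highest concentration. Abbreviation: GI50, concentration required for 50% inhibition of growth.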 Activity calls are given as the source filed them. No stated cut-off is given here; in the data, active = GI50 up to about 1.1 µM and inactive = higher.

Key:
Test in all cases: NCI anticancer screen, dose series, 48 h
786-0 = tested on: 786-0
A498 = tested on: A498
A549 = tested on: A549
ACHN = tested on: ACHN
BT-549 = tested on: BT-549
CAKI-1 = tested on: CAKI-1
CCRF-CEM = tested on: CCRF-CEM
COLO 205 = tested on: COLO 205
DU-145 = tested on: DU-145
EKVX = tested on: EKVX
HCT-116 = tested on: HCT-116
HCT-15 = tested on: HCT-15
HL-60 = tested on: HL-60
HOP-62 = tested on: HOP-62
HOP-92 = tested on: HOP-92
HT-29 = tested on: HT-29
Hs-578T = tested on: Hs-578T
IGROV-1 = tested on: IGROV-1
K562 = tested on: K562
KM12 = tested on: KM12
LOX IMVI = tested on: LOX IMVI
M14 = tested on: M14
MCF7 = tested on: MCF7
MDA-MB-231 = tested on: MDA-MB-231
MDA-MB-435 = tested on: MDA-MB-435
MDA-N = tested on: MDA-N
MOLT-4 = tested on: MOLT-4
Malme-3M = tested on: Malme-3M
NCI-H226 = tested on: NCI-H226
NCI-H23 = tested on: NCI-H23
NCI-H460 = tested on: NCI-H460
NCI-H522 = tested on: NCI-H522
NCI/ADR-RES = tested on: NCI/ADR-RES
OVCAR-3 = tested on: OVCAR-3
OVCAR-4 = tested on: OVCAR-4
OVCAR-5 = tested on: OVCAR-5
OVCAR-8 = tested on: OVCAR-8
PC-3 = tested on: PC-3
RPMI-8226 = tested on: RPMI-8226
RXF 393 = tested on: RXF 393
SF-268 = tested on: SF-268
SF-295 = tested on: SF-295
SF-539 = tested on: SF-539
SK-MEL-28 = tested on: SK-MEL-28
SK-MEL-2 = tested on: SK-MEL-2
SK-MEL-5 = tested on: SK-MEL-5
SK-OV-3 = tested on: SK-OV-3
SN12C = tested on: SN12C
SNB-19 = tested on: SNB-19
SNB-75 = tested on: SNB-75
SR = tested on: SR
SW-620 = tested on: SW-620
T47D = tested on: T47D
TK-10 = tested on: TK-10
U-251 = tested on: U-251
UACC-257 = tested on: UACC-257
UACC-62 = tested on: UACC-62
UO-31 = tested on: UO-31

Measured: GI50

CC(CCN)(CCN)[N+](=O)[O-]
> 100 µM: HCT-15
inactive: 786-0 > 100 µM | A498 > 100 µM | A549 > 100 µM | ACHN > 100 µM | BT-549 > 100 µM | CAKI-1 > 100 µM | CCRF-CEM > 100 µM | COLO 205 > 100 µM | DU-145 > 100 µM | EKVX > 100 µM | HCT-116 > 100 µM | HL-60 > 100 µM | HOP-62 > 100 µM | HOP-92 > 100 µM | HT-29 > 100 µM | Hs-578T > 100 µM | IGROV-1 > 100 µM | K562 > 100 µM | KM12 > 100 µM | LOX IMVI > 100 µM | M14 > 100 µM | MCF7 > 100 µM | MDA-MB-231 > 100 µM | MDA-MB-435 > 100 µM | MDA-N > 100 µM | MOLT-4 > 100 µM | Malme-3M > 100 µM | NCI-H226 > 100 µM | NCI-H23 > 100 µM | NCI-H460 > 100 µM | NCI-H522 > 100 µM | NCI/ADR-RES > 100 µM | OVCAR-3 > 100 µM | OVCAR-4 > 100 µM | OVCAR-5 > 100 µM | OVCAR-8 > 100 µM | PC-3 > 100 µM | RPMI-8226 > 100 µM | RXF 393 > 100 µM | SF-268 > 100 µM | SF-295 > 100 µM | SF-539 > 100 µM | SK-MEL-28 > 100 µM | SK-MEL-2 > 100 µM | SK-MEL-5 > 100 µM | SK-OV-3 > 100 µM | SN12C 77.3 µM | SNB-19 > 100 µM | SNB-75 > 100 µM | SR > 100 µM | SW-620 > 100 µM | T47D > 100 µM | TK-10 > 100 µM | U-251 > 100 µM | UACC-257 > 100 µM | UACC-62 > 100 µM | UO-31 > 100 µM
